Assay results as given in patent US8551999B2, “Heterocyclic compound and pharmaceutical composition thereof” (Otsuka Pharmaceutical Co., Ltd., priority 2007, dated 2013).
Structures can show the parent of a compound that is named as a salt.

Columns and labels:
[1] = tested on: human hepatic cancer cells (HuH-7); test: Antiproliferative effect on cancer cells (in vitro), sulforhodamine B method, HuH-7; format: cell-based; details: HuH-7 cells, 5 days incubation with test compound
Procedure: (§1) Growth inhibition of human hepatic cancer cells (HuH-7) was determined by the sulforhodamine B method based on the method of Skehan P. et al. (J Natl Cancer Inst. 1990 Jul. 4; 82(13): 1107-12). In the study, HuH-7 cells were seeded on DMEM medium containing 10% fetal bovine serum in a 96-well microplate. After 24-hour incubation at 37° C. in the presence of 5% carbon dioxide, the test compound was added and the cells were incubated for another 5 days. After incubation, a trichloroacetic acid solution was added to yield the final concentration of 10% and the cells were left to stand at 4° C. for 1 hour to fix. Then, the cells were washed with water to remove the medium and trichloroacetic acid and dried in the air. The dried cells were stored at 4° C. until they were stained with sulforhodamine B. To each well, 1% acetic acid solution containing 0.4% sulforhodamine B was added and left to stand for 20 to 30 minutes at room temperature. After discarding the supernatant, each well was washed with 1% acetic acid solution, and 10 mM Tris ([…]) solution was added while stirring to elute the dye taken into the cells. Then, the optical density was determined at the measurement wavelength of 492 nm and the reference wavelength of 690 nm, and the difference was calculated. The cell growth activity in each well was defined as the value determined by subtracting the OD in the control well not containing cells (the difference in absorbance between 492 nm and 690 nm) from that in the test well.
(§2) The 50% inhibitory concentration (IC50 (nM)) of the test compound was determined by comparing the cell growth activity in the well containing the test compound with that of the control not containing the test compound.

[2] = tested on: human pancreatic cancer cells (HPAC); test: Antiproliferative effect on cancer cells (in vitro), sulforhodamine B method, HPAC; format: cell-based; details: 5 days incubation with test compound
Procedure: as §1, §2
The growth inhibition on human pancreatic cancer cells (HPAC) was also determined by the above method using HPAC instead of HuH-7 and RPMI 1640 medium containing 10% fetal bovine serum instead of the DMEM medium containing 10% fetal bovine serum.

[3] = tested on: human chronic myelocytic leukemia cells (KU812); test: Antiproliferative effect on cancer cells (in vitro), WST-8 assay, KU812; format: cell-based; details: 5 days incubation with test compound
Procedure: The growth inhibition on human chronic myelocytic leukemia cells (KU812) was determined by a WST-8 assay according to the method of Singh A K, et al. (Cancer Lett. 1996 Oct. 1; 107(1): 109-15.). In this method, KU812 cells were seeded in RPMI 1640 medium containing 10% fetal bovine serum in a 96-well microplate and incubated at 37° C. for 24 hours in the presence of 5% carbon dioxide. Then, the test compound was added and the cells were incubated for another 5 days. After incubation, 15 μL of 5 mM WST-8 (2-(2-methoxy-4-nitrophenyl)-3-(4-nitrophenyl)-5-(2,4-disulfenyl)-2H-tetrazolium, monosodium salt) was added and the cells were incubated for 2 hours. After the 2-hour incubation, 15 μL of 1% SDS (sodium dodecyl sulfate) was added and the optical density was determined at the measurement wavelength of 450 nm and the reference wavelength of 630 nm, and the difference was calculated. The cell growth activity in each well was defined as the value determined by subtracting the OD in the control well not containing cells (the difference in absorbance between 492 nm and 690 nm) from that in the test well.
as §2

[4] = tested on: LI90 cells, a human hepatic stellate cell line; test: Inhibitory effect on collagen synthesis (in vitro); format: cell-based; details: in the presence of recombinant human TGF-β1, 3H-proline labelled collagen in supernatant
Procedure: Inhibitory Effect on Collagen Synthesis (In Vitro)
LI90 cells, a human hepatic stellate cell line, were suspended in DMEM (Dulbecco's modified eagle medium) supplemented with 10% inactivated FBS (fetal bovine serum), seeded on a 12-well plate and cultured in a CO2 incubator (preset temperature: 37° C., preset CO2 concentration: 5%). After being cultured for 24 hours, the cells were washed with D-PBS (Dulbecco's phosphate buffered saline), placed in MEM (Eagle's minimum essential medium) supplemented with 0.1% inactivated FBS and then cultured in a CO2 incubator. After being cultured for 3 days, the cells were again washed with D-PBS, placed in MEM (Eagle's minimum essential medium) supplemented with 0.1% inactivated FBS and treated with or without a test compound in the presence of […] recombinant human TGF-β1 (transforming growth factor-β1) in a CO2 incubator for 16 hours. After the incubation, the cells were washed with D-PBS and the medium was replaced with MEM containing 0.25 mM ascorbate. A radio-labeled compound, ^3H-proline, was then added to the culture medium to radio-label the collagen proteins produced. After being cultured for 24 hours, the supernatant was collected and the collagen proteins were extracted from the supernatant as acid-soluble fractions. The amount of collagen produced was determined by measuring the radioactivity contained in the fractions. A concentration of test compound that produced 50% inhibition [IC50 value (nM)] on collagen synthesis was calculated by comparing the radioactivity count in a supernatant of test-compound-treated cells with that of untreated cells (control).

STAT3 = test: Inhibitory effect on IL-6-induced STAT3 phosphorylation in human myeloma cells (in vitro); format: cell-based; details: U266B1 human myeloma cells, IL-6 1 ng/mL, pSTAT3 (Y705) by flow cytometry
Procedure: The inhibitory effect of the test compound on phosphorylation of STAT3 (signal transducer and activator of transcription-3) in human myeloma cells ([…]) induced by interleukin-6 (IL-6) was examined using the modified method of Tochizawa S. et al. (J Immunol Methods. 2006 Jun. 30; 313(1-2): 29-37). In the study, U266B1 cells were seeded in an RPMI 1640 medium containing 10% fetal bovine serum (FBS) in a 12-well plate and incubated at 37° C. for 2 hours in the presence of carbon dioxide. After incubation, IL-6 was added to yield the concentration of 1 ng/mL and the cells were incubated at 37° C. for 15 minutes in the presence of 5% carbon dioxide. After fixation of the cells by the addition of a buffer containing formaldehyde (Lyse/Fix Buffer, BD Biosciences) at room temperature for 10 minutes, the suspension was centrifuged to remove the supernatant and the cells were treated with ice-cold methanol for 10 minutes to improve the permeability of the cell membrane. The cells were centrifuged to remove methanol and washed twice with Dulbecco's phosphate buffered saline (D-PBS) containing 2% fetal bovine serum (FBS). A fluorescence-labeled anti-phosphorylated STAT3 (pSTAT3) antibody (Alexa Fluor 488-labeled anti-pSTAT3 (Y705) antibody, BD Biosciences) was added for staining in an ice bath for 30 minutes.
The cells were washed once with 2% FBS-containing D-PBS and suspended in 2% FBS-containing D-PBS, and the fluorescence intensity was determined using a flow cytometer (FACS Sort, BD Biosciences). The ratio of fluorescence intensity in the test group to the control group (T/C) was determined from the difference in the geometric mean of pSTAT3 fluorescence intensity between the test compound group of each concentration and the non-stimulated control group according to the following equation by defining the difference in the geometric mean of pSTAT3 fluorescence intensity between the IL-6 induced control and the non-stimulated control as 100%. T/C(%)=([…] of pSTAT3 fluorescence intensity in the cells treated with the test compound—geometric mean of pSTAT3 fluorescence intensity in non-stimulated control)/(geometric mean of fluorescence intensity of IL-6-induced pSTAT3 in the control−geometric mean of pSTAT3 fluorescence intensity in non-stimulated control)×100.
The concentration of the test compound inhibiting phosphorylation of STATS at 50% (IC50; concentration of the test compound corresponding to 50% T/C(%)) was determined using T/C(%) values at the respective concentrations and defined as the index for the inhibitory activity.

Cn1c(C(=O)N2CCN(Cc3ccc(-c4csnn4)cc3)CC2)cc2ccc(Oc3ccc(NC(=O)c4ccc(C(F)(F)F)cc4)cn3)cc21 [Example 571, N-(6-{1-Methyl-2-[4-(4-[1,2,3]thiadiazol-4-ylbenzyl)piperazine-1-carbonyl]-1H-indol-6-yloxy}pyridin-3-yl)-4-trifluoromethyl-benzamide]
melting point: 220 to 220.8 °C | IC50 ([1]; Homo sapiens, 120 h): < 10 nM | IC50 ([2]; Homo sapiens, 120 h): < 70 nM | IC50 ([3]; Homo sapiens, 120 h): < 2 nM

CC(C)Oc1ccc(CN2CCN(C(=O)c3cc4cc(Oc5ccc(N(C)C(=O)c6ccc(C(F)(F)F)cc6)cn5)ccc4n3C)CC2)cn1.O=C(O)/C=C\C(=O)O [Example 424, N-(6-{2-[4-(6-Isopropoxypyridin-3-ylmethyl)piperazine-1-carbonyl]-1-methyl-1H-indol-5-yloxy}pyridin-3-yl)-N-methyl-4-tri-fluoromethylbenzamide maleate]
melting point: 157 to 159 °C | IC50 ([1]; Homo sapiens, 120 h): < 10 nM | IC50 [4]: < 10 nM | IC50 ([2]; Homo sapiens, 120 h): < 70 nM | IC50 ([3]; Homo sapiens, 120 h): < 2 nM

COc1ccc(S(=O)(=O)N(C)c2ccc(Oc3ccc4cc(C(=O)N5CCN(Cc6ccc(OCC(F)(F)F)cc6)CC5)n(C)c4c3)nc2)cc1.Cl [Example 73, 4-Methoxy-N-methyl-N-[6-(1-methyl-2-{4-[4-(2,2,2-trifluoro-ethoxy)benzyl]piperazine-1-carbonyl}-1H-indol-6-yloxy)pyridin-3-yl]benzenesulfonamide hydrochloride]
melting point: 213.4 to 214.1 °C | IC50 ([1]; Homo sapiens, 120 h): < 10 nM | IC50 ([2]; Homo sapiens, 120 h): < 70 nM | IC50 ([3]; Homo sapiens, 120 h): < 2 nM

Br.CC(C)Oc1ccc(CN2CCN(C(=O)c3cc4ccc(Oc5ccc(NC(=O)c6ccc(C(F)(F)F)cc6Cl)cn5)cc4n3C)CC2)cc1 [Example 253, 2-Chloro-N-(6-{2-[4-(4-isopropoxybenzyl)piperazine-1-carbonyl]-1-methyl-1H-indol-6-yloxy}pyridin-3-yl)-4-trifluoromethylbenzamide hydrobromide]
melting point: 237.2 to 238.2 °C | IC50 ([1]; Homo sapiens, 120 h): < 10 nM | IC50 [4]: < 10 nM | IC50 ([2]; Homo sapiens, 120 h): < 70 nM | IC50 ([3]; Homo sapiens, 120 h): < 2 nM

Cc1c(Oc2ccc(N(C)C(=O)c3ccc(C(F)(F)F)cc3)cn2)ccc2c1cc(C(=O)N1CCN(Cc3ccc(C(C)C)cc3)CC1)n2C [Example 428, N-(6-{2-[4-(4-Isopropylbenzyl)piperazine-1-carbonyl]-1,4-dimethyl-1H-indol-5-yloxy}pyridin-3-yl)-N-methyl-4-trifluoro-methylbenzamide hydrobromide]
IC50 [1]: < 10 nM | IC50 [4]: < 10 nM | IC50 [2]: < 70 nM | IC50 [3]: < 2 nM

CCOc1ccc(CN2CCN(C(=O)c3cc4cc(Oc5ccc(N(C)C(=O)c6ccc(C(F)(F)F)cc6)c(C)n5)ccc4n3C)CC2)cc1 [Example 368, N-(6-{2-[4-(4-Ethoxybenzyl)piperazine-1-carbonyl]-1-methyl-1H-indol-5-yloxy}-2-methylpyridin-3-yl)-h=methyl-4-trifluoromethyl-benzamide hydrobromide]
IC50 [1]: < 10 nM | IC50 [2]: < 70 nM | IC50 [3]: < 2 nM

CC(C)Oc1ccc(CN2CCN(C(=O)c3cc4ccc(Oc5ccc(N(C)S(=O)(=O)c6ccc(Cl)c(Cl)c6)cn5)cc4n3C)CC2)cc1 [Example 507, 3,4-Dichloro-N-(6-{2-[4-(4-isopropoxybenzyl)piperazine-1-carbonyl]-1-methyl-1H-indol-6-yloxy}pyridin-3-yl)-N-methyl-benzenesulfonamide]
melting point: 186.8 to 187 °C | IC50 (STAT3): < 10 nM

CCc1ccc(CN2CCN(C(=O)c3cc4cc(Oc5ccc(N(C)C(=O)c6ccc(C(F)(F)F)cc6)cn5)ccc4n3C)CC2)cc1.O=C(O)C(=O)O [Example 391, N-(6-{2-[4-(4-Ethylbenzyl)piperazine-1-carbonyl]-1-methyl-1H-indol-5-yloxy}pyridin-3-yl)-N-methyl-4-trifluoromethylbenzamide oxalate]
melting point: 167 to 169 °C | IC50 ([1]; Homo sapiens, 120 h): < 10 nM | IC50 ([2]; Homo sapiens, 120 h): < 70 nM | IC50 ([3]; Homo sapiens, 120 h): < 2 nM

Br.CCCOc1ccc(CN2CCN(C(=O)c3cc4ccc(Oc5ccc(N(C)C(=O)c6ccc(C(F)(F)F)cc6)cn5)cc4n3C)CC2)cc1 [Example 420, N-Methyl-N-(6-{1-methyl-2-[4-(4-propoxybenzyl)piperazine-1-carbonyl]-1H-indol-6-yloxy}pyridin-3-yl)-4-trifluoromethyl-benzamide hydrobromide]
melting point: 246 to 248 °C | IC50 (STAT3): < 10 nM

Cc1ccc(S(=O)(=O)N(C)c2ccc(Oc3ccc4cc(C(=O)N5CCN(Cc6ccc(OC(C)C)cc6)CC5)n(C)c4c3)nc2)cc1 [Example 525, N-(6-{2-[4-(4-Isopropoxybenzyl)piperazine-1-carbonyl]-1-methyl-1H-indol-6-yloxy}pyridin-3-yl)-4,N-dimethylbenzenesulfonamide]
melting point: 140.9 to 145.8 °C | IC50 (STAT3): < 10 nM

Cc1ccc(S(=O)(=O)N(C)c2ccc(Oc3ccc4cc(C(=O)N5CCN(Cc6ccc7c(c6)OC(F)(F)O7)CC5)n(C)c4c3)nc2)cc1.Cl [Example 526, N-(6-{2-[4-(2,2-Difluorobenzo[1,3]dioxol-5-ylmethyl)piperazine-1-carbonyl]-1-methyl-1H-indol-6-yloxy}pyridin-3-yl)-4,N-dimethyl-benzenesulfonamide hydrochloride]
melting point: 240 to 243 °C | IC50 (STAT3): < 10 nM
